{"source": "patent US20220106304A1", "about": "“Transcription Factor BRN2 Inhibitory Compounds as Therapeutics and Methods for Their Use” (The University of British Columbia, priority 2018, published 2022)", "data": [{"target": "T1, BRN2 (Homo sapiens, UniProt P20265)", "T1 sequence (P20265 1-443)": "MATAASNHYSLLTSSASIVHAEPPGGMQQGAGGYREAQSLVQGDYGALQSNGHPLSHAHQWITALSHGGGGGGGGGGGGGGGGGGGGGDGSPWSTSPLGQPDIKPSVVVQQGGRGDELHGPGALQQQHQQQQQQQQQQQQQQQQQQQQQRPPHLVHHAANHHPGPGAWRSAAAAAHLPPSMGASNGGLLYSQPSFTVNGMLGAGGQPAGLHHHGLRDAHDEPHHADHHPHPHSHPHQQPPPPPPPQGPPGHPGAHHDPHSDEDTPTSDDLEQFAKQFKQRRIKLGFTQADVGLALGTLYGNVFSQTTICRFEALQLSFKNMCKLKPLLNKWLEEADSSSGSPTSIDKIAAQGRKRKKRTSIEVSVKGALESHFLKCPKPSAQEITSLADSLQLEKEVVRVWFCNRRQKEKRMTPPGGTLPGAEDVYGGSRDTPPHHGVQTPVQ", "assay": "cell-based", "conditions": "read-out: % BRN2 Inhibition (10 μM), 10 μM compound, 24 hours, 42D^ENZR cells stably expressing BRN2-luciferase reporter; negative = activation", "units": {"inhibition at 10 µM": "%"}, "values": [{"smiles": "Cc1c(-c2csc(-c3ccccn3)n2)oc2ccccc12", "note": "[VPC-18-13]", "inhibition at 10 µM": 98.3}, {"smiles": "c1coc(-c2nc(-c3cc4ccccc4o3)cs2)c1", "note": "[VPC-18-14]", "inhibition at 10 µM": 95.9}, {"smiles": "c1ccc(-n2cc(-c3nc4ccccc4o3)cn2)cc1", "note": "[VPC-18-18]", "inhibition at 10 µM": 82.8}, {"smiles": "Clc1ccc2cc(-c3csc(-c4ccco4)n3)oc2c1", "note": "[VPC-18-66, 4-(6-chlorobenzofuran-2-yl)-2-(furan-2-yl)thiazole]", "inhibition at 10 µM": 82}, {"smiles": "c1ccc2oc(-c3csc(-c4ccoc4)n3)cc2c1", "note": "[VPC-18-76, 4-(benzofuran-2-yl)-2-(furan-3-yl)thiazole]", "inhibition at 10 µM": 96.3}, {"smiles": "c1coc(-c2nc(-c3coc4ccccc34)cs2)c1", "note": "[VPC-18-81, 4-(benzofuran-3-yl)-2-(furan-2-yl)thiazole]", "inhibition at 10 µM": 97}, {"smiles": "c1coc(-c2ncc(-c3cc4ccccc4o3)s2)c1", "note": "[VPC-18-90, 5-(benzofuran-2-yl)-2-(furan-2-yl)thiazole]", "inhibition at 10 µM": 80}]}, {"target": "T1, BRN2", "assay": "cell-based", "conditions": "read-out: % BRN2 Inhibition (30 μM), 30 μM compound, 24 hours, 42D^ENZR cells stably expressing BRN2-luciferase reporter; negative = activation", "units": {"inhibition at 30 µM": "%"}, "values": [{"smiles": "Cc1c(-c2csc(-c3ccccn3)n2)oc2ccccc12", "note": "[VPC-18-13]", "inhibition at 30 µM": 99.9}, {"smiles": "c1coc(-c2nc(-c3cc4ccccc4o3)cs2)c1", "note": "[VPC-18-14]", "inhibition at 30 µM": 96.6}, {"smiles": "c1ccc(-n2cc(-c3nc4ccccc4o3)cn2)cc1", "note": "[VPC-18-18]", "inhibition at 30 µM": 87}, {"smiles": "Clc1ccc2cc(-c3csc(-c4ccco4)n3)oc2c1", "note": "[VPC-18-66, 4-(6-chlorobenzofuran-2-yl)-2-(furan-2-yl)thiazole]", "inhibition at 30 µM": 94}, {"smiles": "c1ccc2oc(-c3csc(-c4ccoc4)n3)cc2c1", "note": "[VPC-18-76, 4-(benzofuran-2-yl)-2-(furan-3-yl)thiazole]", "inhibition at 30 µM": 94.9}, {"smiles": "c1coc(-c2nc(-c3coc4ccccc34)cs2)c1", "note": "[VPC-18-81, 4-(benzofuran-3-yl)-2-(furan-2-yl)thiazole]", "inhibition at 30 µM": 99}, {"smiles": "c1coc(-c2ncc(-c3cc4ccccc4o3)s2)c1", "note": "[VPC-18-90, 5-(benzofuran-2-yl)-2-(furan-2-yl)thiazole]", "inhibition at 30 µM": 92}]}, {"tested_on": "not listed separately", "assay": "Liver microsome metabolic stability, MLM", "type": "in vitro ADME", "conditions": "MLM (single value or second of two), percent remaining at 60 min, 1 μM compound, 0.25 mg/mL protein, 1 mM NADPH", "description": "(§1) Potassium phosphate buffer (Kphos) was prepared by adding 0.647 g potassium phosphate monobasic (KH2PO4) and 3.527 g potassium phosphate dibasic ([…]) to 400 mL of Milli-Q water. pH of the buffer was adjusted to 7.4 and volume was made up to 500 mL.\n(§2) Microsomes (20 mg/mL) were diluted in KH2PO4 buffer to prepare a concentration of 0.357 mg/mL.\n(§3) Stock solutions of BRN2 inhibitors were prepared in DMSO at a concentration of 1 mM\n(§4) A stock solution of 3.33 mM NADPH (3.33×) was prepared by dissolving appropriate amount of NADPH in KH2PO4 buffer.\n(§5) Total Incubation volume: 100 μL\n(§6) Compound concentration: 1 μM\n(§7) Protein Concentration: 0.25 mg/mL\n(§8) An 1120 μL aliquot of Kphos buffer (50 mM, pH 7.4) containing liver microsomes (0.357 mg/mL) were added to individual 2 mL tubes (final concentration 0.25 mg/mL). Test compounds (1 mM) and positive controls were directly spiked into respective tubes to prepare a concentration of 1.428 μM (final concentration 1 μM). From the above mix, 70 μL was added to individual wells of 96 well reaction plates and pre-incubated in a 37° C. water bath for 5 min. All the reactions were initiated by adding 30 μL of 3.33 mM NADPH (final concentration 1 mM). Reactions without NADPH and buffer controls (minus NADPH) at 0 min and 60 min were also incubated to rule out non-NADPH metabolism or chemical instability in the incubation buffer. All reactions were terminated using 100 μL of ice-cold acetonitrile containing internal standard at 0, 5, 15, 30 and 60 min. The plates were centrifuged at 4000 RPM for 15 min and 100 μL aliquots were submitted for analysis by LC-MS/MS.\n(§9) Samples were monitored for parent compounds disappearance in MRM mode using LC-MS/MS.\n(§10) The percent remaining of test compounds and positive control in each sample was determined by considering peak area ratio in the 0 minute sample as 100%. The Half-life of compounds in microsomes is calculated by formula:\n(§11) Half-life (t½) (min)=0.693/k, where k is gradient of line determined from plot of peak area ratio (compound peak area/internal standard peak area) against time.\n(§12) In vitro intrinsic clearance (CL'int) (units in mL/min/kg) was calculated using the formula.\n(§13) [formula] • For liver microsomes, scaling factor used was 45 mg microsomal protein per gm liver. • Indicates liver weight (gm) which varies species wise. For mice the liver weights are 90 gm.\n(§14) Where data is not available “na” is inserted.", "units": {"Met Stab % (60 mins HLM/MLM)": "%"}, "values": [{"smiles": "Clc1ccc2cc(-c3csc(-c4ccco4)n3)oc2c1", "note": "[VPC-18-66, 4-(6-chlorobenzofuran-2-yl)-2-(furan-2-yl)thiazole]", "Met Stab % (60 mins HLM/MLM)": 31}, {"smiles": "c1ccc2oc(-c3csc(-c4ccoc4)n3)cc2c1", "note": "[VPC-18-76, 4-(benzofuran-2-yl)-2-(furan-3-yl)thiazole]", "Met Stab % (60 mins HLM/MLM)": 1}, {"smiles": "c1coc(-c2nc(-c3coc4ccccc34)cs2)c1", "note": "[VPC-18-81, 4-(benzofuran-3-yl)-2-(furan-2-yl)thiazole]", "Met Stab % (60 mins HLM/MLM)": 2}, {"smiles": "c1coc(-c2ncc(-c3cc4ccccc4o3)s2)c1", "note": "[VPC-18-90, 5-(benzofuran-2-yl)-2-(furan-2-yl)thiazole]", "Met Stab % (60 mins HLM/MLM)": 0}]}, {"tested_on": "not listed separately", "assay": "Liver microsome metabolic stability, MLM", "type": "in vitro ADME", "conditions": "mouse, liver microsomes, pH 7.4; MLM (single value or second of two), 1 μM compound, 0.25 mg/mL protein; read-out: T1/2 in (mins HLM/MLM)", "description": "as §1, §2, §3, §4, §5, §6, §7, §8, §9, §10, §11, §12, §13, §14", "units": {"half-life at 1 µM": "min"}, "values": [{"smiles": "Clc1ccc2cc(-c3csc(-c4ccco4)n3)oc2c1", "note": "[VPC-18-66, 4-(6-chlorobenzofuran-2-yl)-2-(furan-2-yl)thiazole]", "half-life at 1 µM": 42}, {"smiles": "c1ccc2oc(-c3csc(-c4ccoc4)n3)cc2c1", "note": "[VPC-18-76, 4-(benzofuran-2-yl)-2-(furan-3-yl)thiazole]", "half-life at 1 µM": 9}, {"smiles": "c1coc(-c2nc(-c3coc4ccccc34)cs2)c1", "note": "[VPC-18-81, 4-(benzofuran-3-yl)-2-(furan-2-yl)thiazole]", "half-life at 1 µM": 11}, {"smiles": "c1coc(-c2ncc(-c3cc4ccccc4o3)s2)c1", "note": "[VPC-18-90, 5-(benzofuran-2-yl)-2-(furan-2-yl)thiazole]", "half-life at 1 µM": 8}]}, {"tested_on": "42D^ENZR cells vs 16D^CRPC cells", "assay": "Cell proliferation specificity, 42D^ENZR cells vs 16D^CRPC cells", "type": "cell-based", "conditions": "42D cells express BRN2, 16D cells do not; some also LNCaP; result in words", "description": "Plate 42DENZR (˜7000 cells per well) and 16D^CRPC (˜5000 cells per well) cells in 96 well plate with a volume of 100 μL per well. • 2. Next day 1 mL aliquots of media are combined with 3× the desired concentration of compounds. The aliquots are vortexed and 50 μL of each 3× concentration is added to the 100 μL of media in each well to give the ix desired concentration.\nThe following are the desired concentrations:\n0, 10 nM, 100 nM, 500 nM, 1 μM, 2.5 μM, 5 μM, 10 μM, 15 μM, […], 30 μM. • 3. Approximately 72 hours later, 17 μL of 10% Glutaraldehyde is added to each well and plates are placed on a shaker for 20-30 minutes. • 4. Media is washed off the fixed cells by slow submersion in a container of water. Then the water is removed by tapping the plate upside down. • 5. 75 μL of Crystal Violet™ solution is added into the 96 well plates and placed on a shaker for ˜30 minutes. • 6. Media is washed off the fixed cells by repeated slow submersion in a container of water and the plates are allowed to dry over-night. • 7. Next day, 75 μL of Sorensen Solution is accurately pipetted into each well. The plates placed on a shaker for ˜30 minutes. • 8. Absorbance is measured in the plate at 590 nm.\nCompounds that Show Specificity Towards 42D^ENZR Cells Vs 16D^CRPC Cells Progress to Step 4.\nas §14", "values": [{"smiles": "Cc1c(-c2csc(-c3ccccn3)n2)oc2ccccc12", "note": "[VPC-18-13]", "specificity": "VPC-18-13 (specific)"}, {"smiles": "c1coc(-c2nc(-c3cc4ccccc4o3)cs2)c1", "note": "[VPC-18-14]", "specificity": "VPC-18-14 (specific)"}, {"smiles": "c1ccc(-n2cc(-c3nc4ccccc4o3)cn2)cc1", "note": "[VPC-18-18]", "specificity": "VPC-18-18 (specific- affects 42D but not 16D)"}, {"smiles": "Clc1ccc2cc(-c3csc(-c4ccco4)n3)oc2c1", "note": "[VPC-18-66, 4-(6-chlorobenzofuran-2-yl)-2-(furan-2-yl)thiazole]", "specificity": "VPC-18-66 (specific- no effect on LNCaP and 16D)"}, {"smiles": "c1ccc2oc(-c3csc(-c4ccoc4)n3)cc2c1", "note": "[VPC-18-76, 4-(benzofuran-2-yl)-2-(furan-3-yl)thiazole]", "specificity": "VPC-18-76 (specific)"}, {"smiles": "c1coc(-c2nc(-c3coc4ccccc34)cs2)c1", "note": "[VPC-18-81, 4-(benzofuran-3-yl)-2-(furan-2-yl)thiazole]", "specificity": "VPC-18-81 (specific to 42D)"}, {"smiles": "c1coc(-c2ncc(-c3cc4ccccc4o3)s2)c1", "note": "[VPC-18-90, 5-(benzofuran-2-yl)-2-(furan-2-yl)thiazole]", "specificity": "VPC-18-90 (specific)"}]}]}
